Assay results taken from PubChem BioAssay (NCI).
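In this assay, cells in 96-well plates receive the compound at five concentrations for 48 hours. Endpoints are linearly interpolated between the surrounding concentrations. Here, GI50 denotes the concentration required for 50% inhibition of growth. TGI marks complete inhibition of growth.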

Key:
Assay in all cases: NCI tumour cell line growth inhibition, 48 h
SNB-19 CNS = test system: SNB-19 CNS
SF-268 CNS = test system: SF-268 CNS
HCT-15 colon = test system: HCT-15 colon
OVCAR-3 ovarian = test system: OVCAR-3 ovarian
COLO 205 colon = test system: COLO 205 colon
A549 NSCLC = test system: A549 NSCLC
OVCAR-8 ovarian = test system: OVCAR-8 ovarian
UACC-62 melanoma = test system: UACC-62 melanoma
PC-3 prostate = test system: PC-3 prostate
UACC-257 melanoma = test system: UACC-257 melanoma
SW-620 colon = test system: SW-620 colon
HL-60(TB) leukemia = test system: HL-60(TB) leukemia
SK-MEL-2 melanoma = test system: SK-MEL-2 melanoma
NCI-H23 lung = test system: NCI-H23 lung
DU-145 prostate = test system: DU-145 prostate
HCC-2998 colon = test system: HCC-2998 colon
BT-549 breast = test system: BT-549 breast
MOLT-4 leukemia = test system: MOLT-4 leukemia
NCI-H460 lung = test system: NCI-H460 lung
SF-295 CNS = test system: SF-295 CNS
KM12 colon = test system: KM12 colon
MDA-MB-231 breast = test system: MDA-MB-231 breast
NCI-H226 lung = test system: NCI-H226 lung
HOP-92 NSCLC = test system: HOP-92 NSCLC
SR leukemia = test system: SR leukemia
EKVX NSCLC = test system: EKVX NSCLC
SNB-75 CNS = test system: SNB-75 CNS
SK-OV-3 ovarian = test system: SK-OV-3 ovarian
UO-31 renal = test system: UO-31 renal
NCI-H522 lung = test system: NCI-H522 lung
OVCAR-5 ovarian = test system: OVCAR-5 ovarian
A498 renal = test system: A498 renal
HOP-62 NSCLC = test system: HOP-62 NSCLC
SK-MEL-5 melanoma = test system: SK-MEL-5 melanoma
IGROV1 ovarian = test system: IGROV1 ovarian
SN12C renal = test system: SN12C renal
HT29 colon = test system: HT29 colon
ACHN renal = test system: ACHN renal
LOX IMVI melanoma = test system: LOX IMVI melanoma
TK-10 renal = test system: TK-10 renal
T-47D breast = test system: T-47D breast
NCI/ADR-RES ovarian = test system: NCI/ADR-RES ovarian
OVCAR-4 ovarian = test system: OVCAR-4 ovarian
CCRF-CEM leukemia = test system: CCRF-CEM leukemia
SK-MEL-28 melanoma = test system: SK-MEL-28 melanoma
MALME-3M melanoma = test system: MALME-3M melanoma
K-562 leukemia = test system: K-562 leukemia
RXF 393 renal = test system: RXF 393 renal
RPMI-8226 leukemia = test system: RPMI-8226 leukemia
SF-539 CNS = test system: SF-539 CNS
CAKI-1 renal = test system: CAKI-1 renal
786-0 renal = test system: 786-0 renal
HCT-116 colon = test system: HCT-116 colon
HS 578T breast = test system: HS 578T breast

O=C(Nc1ccc(-c2nc(-c3cccc(O)c3)c(-c3ccnc(Br)c3)[nH]2)cc1)c1ccccc1
GI50 (SNB-19 CNS): 1.83 µM
TGI (SNB-19 CNS): 7.14 µM
GI50 (SF-268 CNS): 2.21 µM
TGI (SF-268 CNS): 6.95 µM
GI50 (HCT-15 colon): 2.01 µM
TGI (HCT-15 colon): 7.29 µM
GI50 (OVCAR-3 ovarian): 2.09 µM
TGI (OVCAR-3 ovarian): 5.67 µM
GI50 (COLO 205 colon): 1.99 µM
TGI (COLO 205 colon): 4.84 µM
GI50 (A549 NSCLC): 2.95 µM
TGI (A549 NSCLC): > 100 µM
GI50 (OVCAR-8 ovarian): 2.6 µM
TGI (OVCAR-8 ovarian): > 100 µM
GI50 (UACC-62 melanoma): 1.73 µM
TGI (UACC-62 melanoma): 4.09 µM
GI50 (PC-3 prostate): 1.9 µM
TGI (PC-3 prostate): 5.84 µM
GI50 (UACC-257 melanoma): 2.21 µM
TGI (UACC-257 melanoma): 5.84 µM
GI50 (SW-620 colon): 2.37 µM
TGI (SW-620 colon): 7.17 µM
GI50 (HL-60(TB) leukemia): 1.37 µM
TGI (HL-60(TB) leukemia): 6.82 µM
GI50 (SK-MEL-2 melanoma): 2.02 µM
TGI (SK-MEL-2 melanoma): 5.46 µM
GI50 (NCI-H23 lung): 2.04 µM
TGI (NCI-H23 lung): 4.78 µM
GI50 (DU-145 prostate): 2.76 µM
TGI (DU-145 prostate): 8.74 µM
GI50 (HCC-2998 colon): 2.27 µM
TGI (HCC-2998 colon): 6.37 µM
GI50 (BT-549 breast): 1.8 µM
TGI (BT-549 breast): 5.79 µM
GI50 (MOLT-4 leukemia): 2 µM
TGI (MOLT-4 leukemia): 7.48 µM
GI50 (NCI-H460 lung): 2.45 µM
TGI (NCI-H460 lung): 6.52 µM
GI50 (SF-295 CNS): 0.34 µM
TGI (SF-295 CNS): 1.16 µM
GI50 (KM12 colon): 2.44 µM
TGI (KM12 colon): 7.13 µM
GI50 (MDA-MB-231 breast): 2.59 µM
TGI (MDA-MB-231 breast): 17.1 µM
GI50 (NCI-H226 lung): 2.33 µM
TGI (NCI-H226 lung): 6.53 µM
GI50 (HOP-92 NSCLC): 1.84 µM
TGI (HOP-92 NSCLC): 4.73 µM
GI50 (SR leukemia): 1.26 µM
TGI (SR leukemia): > 100 µM
GI50 (EKVX NSCLC): 2.14 µM
TGI (EKVX NSCLC): 6.19 µM
GI50 (SNB-75 CNS): 0.286 µM
TGI (SNB-75 CNS): 3.37 µM
GI50 (SK-OV-3 ovarian): 2.68 µM
TGI (SK-OV-3 ovarian): 7.09 µM
GI50 (UO-31 renal): 2.56 µM
TGI (UO-31 renal): 6.56 µM
GI50 (NCI-H522 lung): 2.01 µM
TGI (NCI-H522 lung): 5.35 µM
GI50 (OVCAR-5 ovarian): 2.92 µM
TGI (OVCAR-5 ovarian): 19.1 µM
GI50 (A498 renal): 1.66 µM
TGI (A498 renal): 4.53 µM
GI50 (HOP-62 NSCLC): 2.54 µM
TGI (HOP-62 NSCLC): 9.05 µM
GI50 (SK-MEL-5 melanoma): 1.79 µM
TGI (SK-MEL-5 melanoma): 3.23 µM
GI50 (IGROV1 ovarian): 2.62 µM
TGI (IGROV1 ovarian): 6.53 µM
GI50 (SN12C renal): 2.68 µM
TGI (SN12C renal): 8.95 µM
GI50 (HT29 colon): 2.85 µM
TGI (HT29 colon): > 100 µM
GI50 (ACHN renal): 2.43 µM
TGI (ACHN renal): 7.42 µM
GI50 (LOX IMVI melanoma): 1.52 µM
TGI (LOX IMVI melanoma): 3.95 µM
GI50 (TK-10 renal): 2.92 µM
TGI (TK-10 renal): 8.03 µM
GI50 (T-47D breast): 1.73 µM
TGI (T-47D breast): 4.73 µM
GI50 (NCI/ADR-RES ovarian): 3 µM
TGI (NCI/ADR-RES ovarian): 12.4 µM
GI50 (OVCAR-4 ovarian): 2.27 µM
TGI (OVCAR-4 ovarian): 6.09 µM
GI50 (CCRF-CEM leukemia): 1.32 µM
TGI (CCRF-CEM leukemia): > 100 µM
GI50 (SK-MEL-28 melanoma): 1.76 µM
TGI (SK-MEL-28 melanoma): 4.82 µM
GI50 (MALME-3M melanoma): 1.83 µM
TGI (MALME-3M melanoma): 4.71 µM
GI50 (K-562 leukemia): 2.12 µM
TGI (K-562 leukemia): > 100 µM
GI50 (RXF 393 renal): 0.294 µM
TGI (RXF 393 renal): 0.869 µM
GI50 (RPMI-8226 leukemia): 0.595 µM
TGI (RPMI-8226 leukemia): 2.89 µM
GI50 (SF-539 CNS): 1.51 µM
TGI (SF-539 CNS): 4.78 µM
GI50 (CAKI-1 renal): 1.98 µM
TGI (CAKI-1 renal): 5.8 µM
GI50 (786-0 renal): 1.08 µM
TGI (786-0 renal): 4.03 µM
GI50 (HCT-116 colon): 2.26 µM
TGI (HCT-116 colon): 7.6 µM
GI50 (HS 578T breast): 0.308 µM
TGI (HS 578T breast): 0.946 µM
